Values quoted from earlier work in patent US20120058950A1, “DETECTION OF NEUROPEPTIDES ASSOCIATED WITH PELVIC PAIN DISORDERS AND USES THEREOF” (University of Vermont and State Agricultural College, priority 2003, published 2012).
No end group written: not given here.

Legend:
[1] = test system: bladder
[2] = test system: detrusor

## Pituitary Adenylate Cyclase Activating Peptide (HSDGIFTDSYSRYRKQMAVKKYLAAVLGKRYKQRVKNK; ends and bridges not checked; UniProt P18509 132-169, looked up) [PACAP]
[1]
  activity when infused near the bladder: has activity when infused near the bladder
[2]
  bladder activity in vitro (contraction of detrusor, alteration of electrically or cholinergically elicited contractions): no bladder activity in vitro
